# Key:
# [1] = system: PbAus-infected C57Bl/6 mice; test: Brain edema, Evans blue dye extravasation; assay type: in vivo; details: treatment days 3, 5, 7, 9 p.i.
# Procedure: BBB disruption was assessed by quantifying Evans blue dye extravasation. 200 µl 2% (w/v) Evan's blue solution in PBS was injected i.v. to pre-warmed mice. After 2 h mice were anesthetized and perfused intracardially with ice-cold PBS. Brains were extracted, homogenized in 1 ml PBS, and centrifuged; the supernatant was read by spectrophotometry at 510 nm. Values were normalized to the values from the brains of non-infected mice similarly injected.
# [2] = system: PbAus-infected C57Bl/6 mice; test: Brain hemorrhages, H&E staining; assay type: in vivo; details: treatment days 3, 5, 7, 9 p.i.
# Procedure: H&E staining was performed by incubation of slides in Sigma's Accustain hematoxylin solution followed by staining in eosin solution (2% eosin, 1% phloxine and 0.5% acetic acid in 95% ethanol), and mounting in Hydromount (National Diagnostics, Cherry Hill, NJ, USA).
# [3] = system: Plasmodium berghei ANKA (PbAus); test: Late-stage treatment of ECM followed by artemisone, PbAus-infected C57Bl/6 mice
# Procedure: Plasmodium berghei ANKA (PbA; PbA MRA-311, CDC, Atlanta, GA, USA) was maintained in vivo by serial transfer of parasitized erythrocytes (PE) from infected to naïve mice. Experiments were also performed using a second strain of PbA, similarly maintained, and designated PbAus in the text (courtesy of Prof. G. Grau, University of Sydney, Australia).
# Parasitemia was monitored by thin blood smears prepared from tail blood. These were stained with a 25% Giemsa solution, examined under a light microscope, and parasitemia determined as the percent of infected red blood cells per 10,000 erythrocytes. Disease severity was determined according to scoring of neurological symptoms and changes in weight and temperature, as previously described […] Parasitemias above 20% and the absence of neurological symptoms indicated severe anemic malaria.
# For early ECM treatment, injections were given on days 3, 5, 7, and 9 p.i; for late treatment, treatment was given every other day, starting on day 5 p.i. for a total of at least two injections. Infected, non-treated control mice were injected with 5% dextrose or empty nSSL. Clinical signs and parasitemias were monitored and disease severity scored as described […] At each time-point, at least 3 mice from each group were chosen at random, deeply anesthetized, and brains were removed following intracardial perfusion (using saline, if organs were destined for real-time (rt)PCR analysis, or saline/formalin, if organs were destined for histopathological analysis). Organs destined for rtPCR analysis were snap-frozen in liquid nitrogen and stored at −80°C until use. Organs destined for immunohistology were immediately immersed in cryoprotectant solution (see below).
# [4] = system: inflammation-related genes (CCL5, CXCL9, CXCL10, ICAM-1, IFNγ, IL-4); test: Brain expression of inflammation-related genes by qPCR; assay type: in vivo, C57Bl/6 mice; details: day 9 p.i., treatment days 3, 5, 7, 9 p.i., relative to non-infected mice, normalized to HPRT
# Procedure: For total RNA extraction, samples were homogenized in Tri-reagent (Sigma) and the homogenate separated into aqueous and organic phases by chloroform addition and centrifugation. RNA was precipitated from the aqueous phase by addition of isopropanol, washed with ethanol, and solubilized in UPW.
# cDNA synthesis was performed using a High Capacity cDNA Reverse Transcription kit (Applied Biosystems, Warrington, UK). cDNA was amplified from 1 µg RNA from each sample with the addition of 2 µl Multiscribe™ reverse transcriptase (RT), 2 µl RNAse inhibitor, 4 µl random primers, 4 µl RT buffer, and 1.6 µl dNTP's according to the manufacturer's instructions for first-strand cDNA synthesis. UPW was added for a final sample volume of 20 µl. cDNA samples were stored at −20°C.
# Real-time transcription-polymerase chain reaction (rtPCR) was carried out using Applied Biosystems' 9800 Fast Thermal Cycler. The reaction mix for rtPCR analysis consisted of 1 µl cDNA, 300 nM forward (f) and reverse (r) primers (Syntezza, Jerusalem, Israel), and 7.5 µl manufactured master mix buffer containing nucleotides, Taq polymerase, and SYBR Green (Applied Biosystems) in a total volume of 15 µl. Gene amplification included one stage of 10 min at 95°C followed by 40 cycles of a two-step loop: 20 s at 95°C, and 1 min at 60°C. The fold-change in gene expression was normalized to the endogenous gene hypoxanthine phosphoribosyltransferase (HPRT). […] Results were considered significant if the observed fold-change was at least ×2 relative to non-infected mice. Primer sequences (5′-3′) were as follows: CCL5: […] (f), […] (r); ICAM-1: […] (f); […] (r); IFN-γ: […] (f), […] (r); IL-4: […] (f), […] (r); CXCL9: […] (f), […] (r); CXCL10: […] (f), […] (f), […] (r).
# [5] = Biodistribution of BMS administered as free BMS or nSSL-BMS; details: infected mice; for concentration at 1 h / concentration at 6 h / concentration at 24 h / concentration at 48 h: C57Bl/6 Ola-Hsd, mouse, iv, µg drug/g organ; for concentration at 1 h: 1 h post-injection; for concentration at 48 h: 48 h post-injection
# Procedure: The total and intraliposomal (after treatment with Dowex 2X-800 anion exchanger, pH 5, which binds all free drug) concentrations of MPS or BMS and their hydrolysis products were quantified using HPLC [5]. Liposome size distribution, phospholipid concentration, drug to lipid ratio, and level of free drug (i.e. percent drug encapsulated) were determined (see Table 1) as previously described.
# At 1 h, 6 h, 24 h, and 48 h post-injection, mice (n = 3 per group) were anesthetized and sacrificed for organ collection. Organs were pooled and homogenized in 5% dextrose, followed by spiking with hydrocortisone, which served as an internal standard for extraction and sample processing. The homogenates were extracted as described elsewhere. Quantification of BMS and its derivatives was performed by HPLC as described above.
# [6] = brain, 20 mg/kg, BMS in brain, 20 mg/kg i.v. on day 6 p.i.
# [7] = heart, 20 mg/kg, BMS in heart, 20 mg/kg i.v. on day 6 p.i.
# [8] = liver, 20 mg/kg, BMS in liver, 20 mg/kg i.v. on day 6 p.i.
# [9] = lungs, 20 mg/kg, BMS in lungs, 20 mg/kg i.v. on day 6 p.i.
smiles,measurement,setting,value
"C[C@H]1C[C@H]2[C@@H]3CCC4=CC(=O)C=C[C@]4(C)[C@@]3(F)[C@@H](O)C[C@]2(C)[C@@]1(O)C(=O)COC(=O)CCC(=O)O [BMS, β-methasone hemisuccinate]","Edema, ng Evan's blue/brain",[1]; day 5 p.i.,263±95 ng Evan's blue/brain
same,"Edema, ng Evan's blue/brain",[1]; day 9 p.i.,263±6 ng Evan's blue/brain
same,Number of hemorrhages,[2]; day 5 p.i.,9±1
same,Number of hemorrhages,[2]; day 9 p.i.,9±2
same,Mice that died of acute toxicity,"[3]; 20 mg/kg on days 5, 7, 9 p.i., upon second or third injection",6/10
same,Average clinical score on day 7 p.i.,"[3]; 20 mg/kg, treatment started day 5 p.i.",4.2±2.2
same,CCL5 relative expression ± SEM,[4],45.7±7.6
same,CXCL9 relative expression ± SEM,[4],39.3±11.1
same,CXCL10 relative expression ± SEM,[4],18.2±2.4
same,ICAM-1 relative expression ± SEM,[4],3.3±0.7
same,IFNγ relative expression ± SEM,[4],105.1±37.7
same,IL-4 relative expression ± SEM,[4],1.5±0.3
same,concentration at 1 h,[5]; [6],400 ng/g
same,concentration at 6 h,"[5]; brain, 20 mg/kg, BMS in brain, 20 mg/kg i.v. on day 6 p.i., 6 h post-injection",100 ng/g
same,concentration at 24 h,"[5]; brain, 20 mg/kg, BMS in brain, 20 mg/kg i.v. on day 6 p.i., 24 h post-injection",100 ng/g
same,concentration at 48 h,[5]; [6],100 ng/g
same,concentration at 1 h,[5]; [7],2900 ng/g
same,concentration at 6 h,"[5]; heart, 20 mg/kg, BMS in heart, 20 mg/kg i.v. on day 6 p.i., 6 h post-injection",2400 ng/g
same,concentration at 24 h,"[5]; heart, 20 mg/kg, BMS in heart, 20 mg/kg i.v. on day 6 p.i., 24 h post-injection",~3000 ng/g
same,concentration at 48 h,[5]; [7],3300 ng/g
same,concentration at 1 h,[5]; [8],2400 ng/g
same,concentration at 6 h,"[5]; liver, 20 mg/kg, BMS in liver, 20 mg/kg i.v. on day 6 p.i., 6 h post-injection",3400 ng/g
same,concentration at 24 h,"[5]; liver, 20 mg/kg, BMS in liver, 20 mg/kg i.v. on day 6 p.i., 24 h post-injection",400 ng/g
same,concentration at 48 h,[5]; [8],400 ng/g
same,concentration at 1 h,[5]; [9],1600 ng/g
same,concentration at 6 h,"[5]; lungs, 20 mg/kg, BMS in lungs, 20 mg/kg i.v. on day 6 p.i., 6 h post-injection",2400 ng/g
same,concentration at 24 h,"[5]; lungs, 20 mg/kg, BMS in lungs, 20 mg/kg i.v. on day 6 p.i., 24 h post-injection",2000 ng/g
same,concentration at 48 h,[5]; [9],2000 ng/g
same,"BMS in lungs, µg drug/g organ","[5]; 20 mg/kg i.v. on day 6 p.i., 24 h post-injection, listed as Free BMS, 20 mg/kg",1.9 µg drug/g organ
same,Brain to liver BMS concentration ratio,[5]; 6 h post-injection,0.03
